The record followed here is PMC4583449, “Characterisation of (R)-2-(2-Fluorobiphenyl-4-yl)-N-(3-Methylpyridin-2-yl)Propanamide as a Dual Fatty Acid Amide Hydrolase: Cyclooxygenase Inhibitor” (PLoS ONE, 2015).

Common to all, as to assay type: biochemical
The target in assay [1] is T1, mouse brain FAAH (Mus musculus, UniProt O08914).
T1 construct: Brains from male B6CBAF1/J mice, stored at -80°C, were thawed, weighed and homogenized in cold buffer; from tissue; host or cells: brain of male B6CBAF1/J mice (washed membrane pellet homogenate)
T1 sequence (O08914 1-579): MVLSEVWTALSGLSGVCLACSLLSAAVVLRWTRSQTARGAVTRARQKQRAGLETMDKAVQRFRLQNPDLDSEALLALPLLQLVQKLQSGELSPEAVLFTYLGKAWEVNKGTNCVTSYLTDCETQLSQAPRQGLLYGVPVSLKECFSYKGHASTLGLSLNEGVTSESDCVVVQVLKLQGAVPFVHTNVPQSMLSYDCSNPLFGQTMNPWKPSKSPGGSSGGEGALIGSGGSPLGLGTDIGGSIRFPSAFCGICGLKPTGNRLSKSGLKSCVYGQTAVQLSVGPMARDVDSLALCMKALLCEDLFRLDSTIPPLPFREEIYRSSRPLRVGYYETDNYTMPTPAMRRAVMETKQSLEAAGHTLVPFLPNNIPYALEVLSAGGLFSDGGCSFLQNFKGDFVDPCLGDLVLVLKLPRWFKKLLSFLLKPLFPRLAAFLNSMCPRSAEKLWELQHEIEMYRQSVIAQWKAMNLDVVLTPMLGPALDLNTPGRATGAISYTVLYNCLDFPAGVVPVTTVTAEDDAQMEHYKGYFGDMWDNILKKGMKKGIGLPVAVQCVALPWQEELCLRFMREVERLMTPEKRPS
The assay is described as follows: FAAH assay, [3H]AEA hydrolysis in mouse brain homogenates. As for the experimental part:
Brains from male B6CBAF1/J mice, stored at -80°C, were thawed, weighed and homogenized in cold buffer (20 mM HEPES, 1 mM MgCl2 pH 7.0). Homogenates were centrifuged (35,000 g at 4°C for 20 min) before the pellet was resuspended in cold homogenization buffer. Centrifugation and resuspension was repeated twice. The suspension was incubated at 37°C for 15 min to degrade any endogenous substrate able to interfere with the FAAH assay. After centrifugation (35,000 g at 4°C for 20 min), the pellet was resuspended in cold buffer (50 mM Tris-HCl, 1mM EDTA, 3 mM MgCl2, pH 7.4). The protein concentration was determined according to the Bradford assay after which the samples were frozen in aliquots at -80°C. Ethical permission for the animal experiments was obtained from the local animal research ethical committee (Umeå Ethical Committee for Animal Research, Umeå, Sweden). FAAH was assayed using the method of Boldrup et al., whereby homogenates (0.3 μg protein / assay) in assay buffer (10 mM Tris-HCl, 1mM EDTA, pH 7.4), test compounds and substrate ([^3H]AEA in 10 mM Tris-HCl, 1mM EDTA, pH 7.4 containing 10 mg/ml fatty acid-free bovine serum, assay concentration 0.5 μM unless otherwise stated) were incubated for 10 min at 37°C. Thereafter, 400 μL activated charcoal (80 μL activated charcoal + 320 μL 0.5 M HCl) was added and the samples were placed on ice and centrifuged at 2500 rpm for 10 min. Aliquots (200 μL) of the supernatant was analyzed for tritium content by liquid scintillation spectroscopy with quench correction.

Assay [2] has as its target T2, ovine COX-1 (Ovis aries, UniProt P05979).
T2 construct: purchased Cayman Chemical Co. 60100
T2 sequence (P05979 25-600): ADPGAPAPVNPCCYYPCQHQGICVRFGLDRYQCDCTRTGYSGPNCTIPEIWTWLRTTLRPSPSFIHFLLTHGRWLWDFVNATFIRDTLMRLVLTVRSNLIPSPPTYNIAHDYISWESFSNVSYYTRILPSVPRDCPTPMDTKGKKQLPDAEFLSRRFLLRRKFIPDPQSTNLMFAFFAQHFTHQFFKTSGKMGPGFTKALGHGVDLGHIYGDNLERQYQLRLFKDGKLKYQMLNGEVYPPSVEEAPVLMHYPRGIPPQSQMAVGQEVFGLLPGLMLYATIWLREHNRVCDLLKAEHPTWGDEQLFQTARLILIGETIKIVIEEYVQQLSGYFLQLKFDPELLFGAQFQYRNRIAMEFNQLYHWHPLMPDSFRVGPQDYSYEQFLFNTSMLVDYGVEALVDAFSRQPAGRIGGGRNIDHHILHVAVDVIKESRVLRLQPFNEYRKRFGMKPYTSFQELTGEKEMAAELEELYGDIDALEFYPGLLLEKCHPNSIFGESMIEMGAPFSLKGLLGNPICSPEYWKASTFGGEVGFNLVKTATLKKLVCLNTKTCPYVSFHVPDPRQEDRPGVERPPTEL
The assay is described as follows: COX-1 inhibition, oxygraphic method (oxygen electrode). The following applies: 10 μM arachidonic acid; no preincubation phase; approximate, from initial velocities. As for the experimental part:
(§1) The assay was performed according to Meade et al. with minor modifications. An oxygen electrode chamber with integral stirring (Oxygraph System, Hansatech Instruments, King´s Lynn, U.K.) was calibrated daily to ambient temperature and air pressure. The assay buffer contained 0.1 M Tris-HCl buffer pH 7.4, 1 μM haematin, 2 mM phenol, 5 mM EDTA, 10 μM substrate (arachidonic acid or 2-AG) (final assay volume was 2 ml). After addition of (R)- or (S)-Flu-AM1 dissolved in ethanol (final assay concentration 1%), a baseline was established for 5 min before initiation of reaction by addition of 200 units ovine COX-1 or human recombinant COX-2. The change in oxygen consumption as a measurement of enzyme activity was monitored for approximately 5 min.

The target in assay [3] is T3, human recombinant COX-2 (Homo sapiens, UniProt P35354).
T3 construct: purchased Cayman Chemical Co. 60122
T3 sequence (P35354 18-604): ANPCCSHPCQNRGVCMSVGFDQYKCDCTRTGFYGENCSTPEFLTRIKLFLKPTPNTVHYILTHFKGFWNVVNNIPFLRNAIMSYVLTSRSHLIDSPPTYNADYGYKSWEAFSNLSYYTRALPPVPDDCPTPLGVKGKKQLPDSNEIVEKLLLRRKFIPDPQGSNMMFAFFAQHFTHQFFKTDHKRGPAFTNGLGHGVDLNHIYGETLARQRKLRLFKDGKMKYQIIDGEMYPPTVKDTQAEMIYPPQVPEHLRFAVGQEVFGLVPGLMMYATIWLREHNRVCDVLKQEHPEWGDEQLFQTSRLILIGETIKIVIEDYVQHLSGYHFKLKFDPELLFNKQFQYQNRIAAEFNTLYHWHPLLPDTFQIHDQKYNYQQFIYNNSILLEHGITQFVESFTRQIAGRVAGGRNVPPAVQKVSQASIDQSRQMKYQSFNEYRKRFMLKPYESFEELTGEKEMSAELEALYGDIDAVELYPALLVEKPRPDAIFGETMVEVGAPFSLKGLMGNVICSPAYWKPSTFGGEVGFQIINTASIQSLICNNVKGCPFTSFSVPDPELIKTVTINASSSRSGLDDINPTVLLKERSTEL
Kind of assay: COX-2 inhibition, oxygraphic method (oxygen electrode). The settings on record: no preincubation phase, approximate, from initial velocities. The protocol: as §1

“And” between values parts separate entries of the source, which are not always exact repeats. Equal values may be shown once. Read-outs that look alike come from different tables or passages of the source.

For `Cc1cccnc1NC(=O)[C@H](C)c1ccc(-c2ccccc2)c(F)c1` [(R)-Flu-AM1, (R)-2-(2-Fluorobiphenyl-4-yl)-N-(3-Methylpyridin-2-yl)Propanamide], the IC50 was 8.8 µM in assay [1] (0.5 μM [3H]AEA, read-out: IC50 inhibition of [3H]AEA hydrolysis in mouse brain homogenates); 6 µM and ~6 µM in assay [2]; 1 µM and ~1 µM in assay [3] (10 μM 2-AG, read-out: IC50 COX-2 (2-AG)); 20 µM and ~20 µM in assay [3] (10 μM arachidonic acid, read-out: IC50 COX-2 (arachidonic acid)). Moreover, the Ki in assay [1] (Dixon replot of mean kinetic data, 1–8 μM [3H]AEA, read-out: Ki FAAH (Dixon plot)) turned out to be 19 µM; in assay [1] (kinetic experiments, 1–8 μM [3H]AEA, read-out: Ki FAAH (competitive model fit)), 20 ± 8 µM. Besides, the “Mode of FAAH inhibition” value in assay [1] (kinetic experiments, 1–8 μM [3H]AEA) is “competitive inhibitor”.

As usually defined, the IC50 is the midpoint of a concentration-inhibition curve. Usually Ki stands for a measure of affinity in units of concentration, obtained from inhibition or displacement.
